From PubChem BioAssay (NCI)
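Following 48 hours of exposure in 96-well plates, responses at five concentrations were used to interpolate endpoints linearly. GI50 is the concentration that inhibits growth by half. TGI is the concentration that stops growth completely.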

Legend:
Test in all cases: growth of human tumour cells (NCI), 48 h
786-0 renal = tested on: 786-0 renal
ACHN renal = tested on: ACHN renal
HL-60(TB) leukemia = tested on: HL-60(TB) leukemia
HOP-92 NSCLC = tested on: HOP-92 NSCLC
HT29 colon = tested on: HT29 colon
NCI-H460 lung = tested on: NCI-H460 lung
SK-MEL-28 melanoma = tested on: SK-MEL-28 melanoma
SW-620 colon = tested on: SW-620 colon
UACC-62 melanoma = tested on: UACC-62 melanoma
HS 578T breast = tested on: HS 578T breast

SMILES | TGI (786-0 renal) [µM] | TGI (ACHN renal) [µM] | TGI (HL-60(TB) leukemia) [µM] | TGI (HOP-92 NSCLC) [µM] | TGI (HT29 colon) [µM] | TGI (NCI-H460 lung) [µM] | TGI (SK-MEL-28 melanoma) [µM] | TGI (SW-620 colon) [µM] | TGI (UACC-62 melanoma) [µM] | GI50 (786-0 renal) [µM] | GI50 (ACHN renal) [µM] | GI50 (HL-60(TB) leukemia) [µM] | GI50 (HS 578T breast) [µM] | TGI (HS 578T breast) [µM] | GI50 (NCI-H460 lung) [µM] | GI50 (SK-MEL-28 melanoma) [µM] | GI50 (SW-620 colon) [µM] | GI50 (UACC-62 melanoma) [µM] | GI50 (HT29 colon) [µM] | GI50 (HOP-92 NSCLC) [µM]
CC(C)C1CO[C@]2(C)CCC(=O)N12 (some centres undefined) | > 100 | > 100 | > 100 | > 100 | > 100 | > 100 | > 100 | > 100 | > 100 |  |  |  |  |  |  |  |  |  |  | 
C/C(CC(=O)NCCc1ccccc1)=N\NS(=O)(=O)c1ccc(C)cc1 | > 100 | > 100 | > 100 | > 100 | > 100 | > 100 | > 100 | > 100 | > 100 |  |  |  |  |  |  |  |  |  |  | 
Cc1cc2c(c(C(N)=O)c1C)-c1cccc(F)c1C2=O | > 100 | > 100 |  | > 100 | > 100 | > 100 | > 100 | > 100 | > 100 |  |  |  |  |  |  |  |  |  |  | 
C=C(C)[C@@H]1CCC=C2CC[C@]3(C)[C@H](CC[C@@H]4[C@@]5(C)CCCNC(C)(C)[C@@H]5CC[C@]43C)[C@H]21 | 3.04 | 3.25 | 3.57 |  |  | 3.73 | 4.07 | 3.59 | 3.84 | 1.68 | 1.85 | 1.58 | 2.01 | 4.87 | 1.93 | 2.03 | 1.84 | 1.92 |  | 
C=CC(=O)N1C/C(=C\c2ccc(Cl)c(Cl)c2)C(=O)/C(=C/c2ccc(Cl)c(Cl)c2)C1 | 0.194 | 0.343 |  | 2.94 | 0.323 | 0.298 | 1.5 | 0.262 | 0.687 |  |  |  |  |  |  |  |  |  |  | 
CCOC(=O)NC(=O)c1cn(CCN2CCN(C(=O)CNC(=O)CNC(=O)Cn3cc(C(=O)NC(=O)OCC)c(=O)[nH]c3=O)CC2)c(=O)[nH]c1=O | > 100 | > 100 | > 100 | > 100 | > 100 | > 100 | > 100 | > 100 | > 100 |  |  |  |  |  |  |  |  |  |  | 
O=[N+]([O-])c1ccc(NN=C2CN3CCN(C2)c2ccccc23)c([N+](=O)[O-])c1 | > 100 | > 100 |  | > 100 | > 100 | > 100 | > 100 | > 100 | > 100 |  |  |  |  | > 100 |  |  |  |  |  | 
COc1c(C(C)=O)c(OCCCCOc2c(C(C)=O)c(OC)c3ccoc3c2OC)c(OC)c2occc12 | > 100 | > 100 | 4.02 |  | > 100 | > 100 | 7.05 | > 100 | > 100 | > 100 | 3.6 | 1.85 | > 100 | > 100 | > 24.3 | 2.32 | > 100 | 2.13 | 4.06 | 
CCC[CH2][Sn]([CH2]CCC)([O]C(=O)c1cc(OC)c(OC)cc1OC)[O][Sn]([CH2]CCC)([CH2]CCC)[O]C(=O)c1cc(OC)c(OC)cc1OC | 0.698 | 1.17 | 1.31 | 0.564 | 2.82 | 2.85 | 1.02 | 0.536 | 0.715 | 0.24 | 0.339 | 0.288 |  |  | 1.3 | 0.297 | 0.182 | 0.251 | 1.22 | 0.206
